# Measured values from PubChem BioAssay AID1963873 (Molecular Pharmacology Branch, DTP, NCI, 2024).
# System: 276233-004-R-J1-PDC KRAS spheroids with HUVEC/MSC, viability
# Assay: Anticancer human tumor 276233-004-R-J1-PDC patient-derived colon adenocarcinoma cell line growth inhibition [KRAS2]
# Settings: for viability, T/C: stronger effect = lower value
# Outline: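 Combination screen of spheroid viability in tumor-cell co-cultures with endothelial (HUVEC) and mesenchymal stem cell stroma. Each agent was tested in half-log dilutions, topping at clinical Cmax or at 10 microM without a known Cmax.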
# [1] = curve of first compound, second compound 0.1 µM
# [2] = curve of first compound, second compound 0.316 µM
# [3] = curve of first compound, second compound 1 µM
# [4] = curve of first compound, second compound 3.16 µM
# [5] = curve of first compound, second compound 10 µM
# [6] = second compound 0.1 µM, first compound 0.01 µM
# [7] = second compound 0.1 µM, first compound 0.0316 µM
# [8] = second compound 0.1 µM, first compound 0.1 µM
# [9] = second compound 0.316 µM, first compound 0.01 µM
# [10] = second compound 0.316 µM, first compound 0.0316 µM
# [11] = second compound 0.316 µM, first compound 0.1 µM
# [12] = second compound 1 µM, first compound 0.01 µM
# [13] = second compound 1 µM, first compound 0.0316 µM
# [14] = second compound 1 µM, first compound 0.1 µM
# [15] = second compound 3.16 µM, first compound 0.01 µM
# [16] = second compound 3.16 µM, first compound 0.0316 µM
# [17] = second compound 3.16 µM, first compound 0.1 µM
# [18] = second compound 10 µM, first compound 0.01 µM
# [19] = second compound 10 µM, first compound 0.0316 µM
# [20] = second compound 10 µM, first compound 0.1 µM
# [21] = second compound 0.1 µM, first compound 0.316 µM
# [22] = second compound 0.1 µM, first compound 1 µM
# [23] = second compound 0.1 µM, first compound 3.16 µM
# [24] = second compound 0.316 µM, first compound 0.316 µM
# [25] = second compound 0.316 µM, first compound 1 µM
# [26] = second compound 0.316 µM, first compound 3.16 µM
# [27] = second compound 1 µM, first compound 0.316 µM
# [28] = second compound 1 µM, first compound 1 µM
# [29] = second compound 1 µM, first compound 3.16 µM
# [30] = second compound 3.16 µM, first compound 0.316 µM
# [31] = second compound 3.16 µM, first compound 1 µM
# [32] = second compound 3.16 µM, first compound 3.16 µM
# [33] = second compound 10 µM, first compound 0.316 µM
# [34] = second compound 10 µM, first compound 1 µM
# [35] = second compound 10 µM, first compound 3.16 µM
# 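Also: cells exposed to agents for seven days before viability read.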
# 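For viability, T/C in this document: 100% = DMSO vehicle control wells and lower values mean fewer viable cells.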
structure (smiles),measurement,setting,value
CC(C)n1nc(-c2ccc3oc(N)nc3c2)c2c(N)ncnc21 + COc1cc2nc(C)nc(NC(C)c3cc(N)cc(C(F)(F)F)c3)c2cc1OC1CCOC1,IC50,[1],> 100 nM
same,IC50,[2],> 100 nM
same,IC50,[3],42.6 nM
same,IC50,[4],> 100 nM
same,IC50,[5],< 0.316 nM
same,"viability, T/C","second compound 0.1 µM, first compound 0.000316 µM",90.1%
same,"viability, T/C","second compound 0.1 µM, first compound 0.001 µM",120%
same,"viability, T/C","second compound 0.1 µM, first compound 0.00316 µM",76.7%
same,"viability, T/C",[6],68%
same,"viability, T/C",[7],64.7%
same,"viability, T/C",[8],50.8%
same,"viability, T/C","second compound 0.316 µM, first compound 0.000316 µM",109%
same,"viability, T/C","second compound 0.316 µM, first compound 0.001 µM",86.3%
same,"viability, T/C","second compound 0.316 µM, first compound 0.00316 µM",71.6%
same,"viability, T/C",[9],70.9%
same,"viability, T/C",[10],68%
same,"viability, T/C",[11],56.5%
same,"viability, T/C","second compound 1 µM, first compound 0.000316 µM",108%
same,"viability, T/C","second compound 1 µM, first compound 0.001 µM",92.5%
same,"viability, T/C","second compound 1 µM, first compound 0.00316 µM",86.5%
same,"viability, T/C",[12],56.8%
same,"viability, T/C",[13],54.5%
same,"viability, T/C",[14],46%
same,"viability, T/C","second compound 3.16 µM, first compound 0.000316 µM",76.7%
same,"viability, T/C","second compound 3.16 µM, first compound 0.001 µM",83.4%
same,"viability, T/C","second compound 3.16 µM, first compound 0.00316 µM",76.4%
same,"viability, T/C",[15],61.9%
same,"viability, T/C",[16],63.2%
same,"viability, T/C",[17],50.3%
same,"viability, T/C","second compound 10 µM, first compound 0.000316 µM",18.3%
same,"viability, T/C","second compound 10 µM, first compound 0.001 µM",22.9%
same,"viability, T/C","second compound 10 µM, first compound 0.00316 µM",19.1%
same,"viability, T/C",[18],32.5%
same,"viability, T/C",[19],32.2%
same,"viability, T/C",[20],29.3%
CC(=O)OC12COC1CC(O)C1(C)C(=O)C(O)C3=C(C)C(OC(=O)C(O)C(NC(=O)OC(C)(C)C)c4ccccc4)CC(O)(C(OC(=O)c4ccccc4)C21)C3(C)C (stereo not given) + CC1OCC2(CCN(c3cnc(Sc4ccnc(N)c4Cl)c(N)n3)CC2)C1N,IC50,[1],> 3160 nM
same,IC50,[2],> 3160 nM
same,IC50,[3],> 3160 nM
same,IC50,[4],< 10 nM
same,IC50,[5],< 10 nM
same,"viability, T/C",[6],61.6%
same,"viability, T/C",[7],69.1%
same,"viability, T/C",[8],60%
same,"viability, T/C",[21],73.8%
same,"viability, T/C",[22],66.5%
same,"viability, T/C",[23],76.2%
same,"viability, T/C",[9],70.4%
same,"viability, T/C",[10],72.9%
same,"viability, T/C",[11],65.5%
same,"viability, T/C",[24],55.9%
same,"viability, T/C",[25],66.9%
same,"viability, T/C",[26],65.4%
same,"viability, T/C",[12],91.1%
same,"viability, T/C",[13],75.5%
same,"viability, T/C",[14],84.9%
same,"viability, T/C",[27],84.5%
same,"viability, T/C",[28],84.3%
same,"viability, T/C",[29],93.8%
same,"viability, T/C",[15],47.4%
same,"viability, T/C",[16],39.1%
same,"viability, T/C",[17],50.6%
same,"viability, T/C",[30],40.5%
same,"viability, T/C",[31],44.1%
same,"viability, T/C",[32],40.9%
same,"viability, T/C",[18],41.6%
same,"viability, T/C",[19],44.7%
same,"viability, T/C",[20],42%
same,"viability, T/C",[33],34.7%
same,"viability, T/C",[34],42.6%
same,"viability, T/C",[35],35%
COC(=O)c1ccc2c(C(=Nc3ccc(N(C)C(=O)CN4CCN(C)CC4)cc3)c3ccccc3)c(O)[nH]c2c1,"viability, T/C",compound 0.0316 µM,93.3% [middle of 5 runs]
same,"viability, T/C",compound 0.1 µM,90.3% [middle of 5 runs]
same,"viability, T/C",compound 0.316 µM,81.9% [middle of 5 runs]
same,"viability, T/C",compound 1 µM,86.2% [middle of 5 runs]
same,IC50,curve of compound,> 10000 nM
O=C(c1cc(Cc2n[nH]c(=O)c3ccccc23)ccc1F)N1CCN(C(=O)C2CC2)CC1 + C=CC(=O)N1CCN(c2nc(OCC3CCCN3C)nc3c2CCN(c2cccc4cccc(C)c24)C3)CC1CC#N,IC50,"curve of first compound, second compound 0.0316 µM",> 10000 nM
same,IC50,[1],> 10000 nM
same,IC50,[2],> 10000 nM
same,IC50,[3],> 10000 nM
same,IC50,[4],< 31.6 nM
same,"viability, T/C","second compound 0.0316 µM, first compound 0.0316 µM",114%
same,"viability, T/C","second compound 0.0316 µM, first compound 0.1 µM",109%
same,"viability, T/C","second compound 0.0316 µM, first compound 0.316 µM",101%
same,"viability, T/C","second compound 0.0316 µM, first compound 1 µM",93.9%
same,"viability, T/C","second compound 0.0316 µM, first compound 3.16 µM",91.2%
same,"viability, T/C","second compound 0.0316 µM, first compound 10 µM",82.5%
same,"viability, T/C",[7],98.1%
same,"viability, T/C",[8],109%
same,"viability, T/C",[21],100%
same,"viability, T/C",[22],87%
same,"viability, T/C",[23],87.1%
same,"viability, T/C","second compound 0.1 µM, first compound 10 µM",83.1%
same,"viability, T/C",[10],110%
same,"viability, T/C",[11],94.8%
same,"viability, T/C",[24],93.4%
same,"viability, T/C",[25],68.7%
same,"viability, T/C",[26],83.4%
same,"viability, T/C","second compound 0.316 µM, first compound 10 µM",76.3%
same,"viability, T/C",[13],81.5%
same,"viability, T/C",[14],89.8%
same,"viability, T/C",[27],110%
same,"viability, T/C",[28],87.6%
same,"viability, T/C",[29],82.8%
same,"viability, T/C","second compound 1 µM, first compound 10 µM",85%
same,"viability, T/C",[16],55.4%
same,"viability, T/C",[17],37.9%
same,"viability, T/C",[30],57.2%
same,"viability, T/C",[31],43.9%
same,"viability, T/C",[32],44.9%
same,"viability, T/C","second compound 3.16 µM, first compound 10 µM",37.1%
CC1COCCN1c1cc(-c2ccnn2C)c2ccnc(-c3ccn[nH]3)c2n1 (stereo not given) + CC1OCC2(CCN(c3cnc(Sc4ccnc(N)c4Cl)c(N)n3)CC2)C1N,IC50,[1],> 3160 nM
same,IC50,[2],2180 nM
same,IC50,[3],2830 nM
same,IC50,[4],632 nM
same,IC50,[5],737 nM
same,"viability, T/C",[6],107%
same,"viability, T/C",[7],96%
same,"viability, T/C",[8],78.3%
same,"viability, T/C",[21],86.2%
same,"viability, T/C",[22],60.9%
same,"viability, T/C",[23],56.1%
same,"viability, T/C",[9],76.9%
same,"viability, T/C",[10],106%
same,"viability, T/C",[11],84.8%
same,"viability, T/C",[24],74.6%
same,"viability, T/C",[25],61.1%
same,"viability, T/C",[26],45%
same,"viability, T/C",[12],87.7%
same,"viability, T/C",[13],73.2%
same,"viability, T/C",[14],67.9%
same,"viability, T/C",[27],68.5%
same,"viability, T/C",[28],57.4%
same,"viability, T/C",[29],47.5%
same,"viability, T/C",[15],64.1%
same,"viability, T/C",[16],86.2%
same,"viability, T/C",[17],64.8%
same,"viability, T/C",[30],57%
same,"viability, T/C",[31],46.8%
same,"viability, T/C",[32],40.7%
same,"viability, T/C",[18],61.1%
same,"viability, T/C",[19],66.4%
same,"viability, T/C",[20],56.6%
same,"viability, T/C",[33],49.2%
same,"viability, T/C",[34],52.9%
same,"viability, T/C",[35],41.1%
